Assay results as given in US5880146A, “Inhibition of IL-12-induced IFN-γ synthesis by specific bis-phenol compounds as a method of immune modulation” (Fuji ImmunoPharmaceuticals Corporation, priority 1995, dated 1999).

Key:
[1] = system: T cell response of human PBMC to allogenic stimulation by Namalwa cells; test: Mixed Lymphocyte Reaction (proliferation and IFN-γ secretion); format: cell-based; details: 6 days; FIGS. 1-3
Method: This reaction measures the T cell response to allogenic stimulation by a mismatch of class II histocompatability antigens. This is triggered through the T cell receptor and activates the T cell to secrete and proliferate in response to endogenous IL-2. IFN-γ is also made in response to this stimulation and accumulates in the culture medium. Compounds are tested for their ability to block the proliferation and response to antigenic stimulation as well as their ability to produce IFN-γ as follows. A human B cell ine expressing class II antigen, Namalwa (American Type Culture Collection), is incubated for 2 hr at 37° C. in RPMI-10 containing mitomycin C (50 μg/ml). These cells are washed four times by centrifugation and resuspension (10^6 cells/ml) in SF-RPMI medium and are added to the wells of 96-well plate (50 μl/well) as stimulators. Mitomycin treatment prevents these cells from proliferating in the assay. Fresh PBMC are prepared as described above in example 1, but are not activated with PHA. Instead they are resuspended at 10^6 cells/ml and 100 μl is added per well. Dilutions of test compounds are added (50 μl/well) to give a final volume of 200 μl and the plates are incubated for 6 days at 37° C. During the last 18 hr, ^3 H-thymidine (DuPont-NEN- 1 μCi/well) is added as a measure of cell proliferation, cultures are collected using a cell harvester (Packard), and scintillation fluid is added prior to counting in a Packard Top Count scintillation counter. A sample of medium is also collected for measurement of IFN-γ production prior to the addition of ^3 H-thymidine for use as a negative control.

[2] = system: IL-12 induction of IFN-γ in PHA-activated human PBMC; test: Screening assay for compounds which inhibit IL-12 induction of IFN-γ (ELISA); format: cell-based; details: 5 μg/ml, IL-2 25 U/ml + IL-12 0.5 ng/ml, 48 hr, single test, read-out: % INH of IFNγ
Method: Human peripheral blood monocytes (PBMC) were obtained from commercial sources as a leukophoresis from a healthy volunteer and were purified by centrifugation on a Ficoll-Hypaque (Pharmacia) gradient (1700 rpm for 20 min). The "buffy" coat containing the PBMC was diluted with serum-free culture medium (SF-RPMI) to a volume of 50 ml and collected by centrifugation at 1500 rpm for 5 min. Cells were resuspended in cell culture medium containing 10% fetal bovine serum (RPMI-10) and phytohemaglutinin (PHA - 10 μg/ml) at a density of 5×10^6 cells/ml and were cultured for 3 days at 37° C. in a humidified CO2 incubator. The PHA-activated cells were collected by centrifugation, washed three times with an equal volume of SF-RPMI and resuspended in fresh RPMI-10 (1×10^6 cells /ml). Aliquots (100 μl) were dispensed into the wells of multiple 96-well plates to give a final cell number of 10^5 per well. Test compounds, dissolved in dimethyl sulfoxide (DMSO) at 1 mg/ml, were first diluted in culture medium to an intermediate concentration of 20 μg/ml and then were added (50 μwell) to a specific well of the plate for each compound. Stimulation medium (50 μl/well) containing 10% serum, IL-2 and IL-12 was added to final concentrations of 25 U/ml and 0.5 ng/ml, respectively. Control wells receive no IL-2 or IL-12 (negative control) or received both interleukins but no test compound (positive control). The plates were incubated for 48 hr at 37° C. in a CO2 incubator at which time aliquots (20 μl) were removed for analysis of IFN-γ concentration by ELISA. A quantitative ELISA was developed by coating 96-well plates with an mouse monoclonal antibody against human IFN-γ, 1 μg/ml in phosphate buffered saline (PBS) (Pestka Biological Laboratories), overnight at 4° C. Unbound antibody was washed off by washing three times with PBS. Non-specific antibody binding was blocked with a solution of 1% bovine serum albumin (BSA) and 1% goat serum in PBS (150 μl/well) which was incubated for 2 hr at 37° C. After washing the blocked plates four times with PBS, test samples and dilutions of the IFN-γ standard are added in a final volume of 100 μl/well. Following an overnight incubation at 4° C., the plates are washed four times with PBS, and a polyclonal rabbit antiserum against human IFN-γ (1/10000 dilution--Petska Biological Laboratories) is added. After an additional incubation for 1 hr at 37° C. and four washes with PBS, a polyclonal donkey anti-rabbit detecting antibody, conjugated to horseradish peroxidase (1/700 dilution--Petska Biological Laboratories) is added for 1 hr at 37° C. The plates are then washed four times with PBS and 100 μl of K-blue substrate E(ILISA Technologies, Neogen Corp.) is added until the color in the wells containing the standard curve is sufficiently developed, at which time 100 μl of "Red-stop" solution (ELISA Technologies) is added. The absorbance of the solution within each well of the plate is then read at 650 nm using an ELISA plate reader (Dynatech MR7000). The amount of IFN-γ is calculated by comparing the optical density of the test sample with a standard curve derived from the dilutions of the control IFN-y. The amount of IFN-γ that is induced in the presence of both IL-2 and IL-12 generally ranges from 1200-2000 pg/ml while the amount produced in the absence of IL-12 is generally less than 50 pg/ml. Experimental data are shown in Table 2 which discloses a) the percent inhibition of IFNγ production, relative to a […], when the cells have been treated with a bis-compound at a final concentration of 5 μg/ml of the listed bis-compound (%INH or IFNγ) and b) the percent of cells which are viable after the treatment with 5 μg/ml of the various bis-compounds, determined by adding MTS to the media (% Viability). MTS is a chemical chromophore that is metabolized in the mitochondria of viable cells to produce a color which increases in intensity in proportion to the numbers of viable cells. […]

[3] = system: mice; test: Toxicity of bis-compounds after single systemic dose; format: in vivo; details: 16% cremaphor, 10 mg/ml
[4] = as above; format: in vivo; details: mouse, in vivo, 16% cremaphor, conc. sol. 10 mg/ml, single dose
[5] = Cell viability (MTS) after treatment with bis-compound; format: cell-based; details: human, pha-activated pbmc, 5 μg/ml
Method: Human peripheral blood monocytes (PBMC) were obtained from commercial sources as a leukophoresis from a healthy volunteer and were purified by centrifugation on a Ficoll-Hypaque (Pharmacia) gradient (1700 rpm for 20 min). The "buffy" coat containing the PBMC was diluted with serum-free culture medium (SF-RPMI) to a volume of 50 ml and collected by centrifugation at 1500 rpm for 5 min. Cells were resuspended in cell culture medium containing 10% fetal bovine serum (RPMI-10) and phytohemaglutinin (PHA - 10 μg/ml) at a density of 5×10^6 cells/ml and were cultured for 3 days at 37° C. in a humidified CO2 incubator. The PHA-activated cells were collected by centrifugation, washed three times with an equal volume of SF-RPMI and resuspended in fresh RPMI-10 (1×10^6 cells /ml). Aliquots (100 μl) were dispensed into the wells of multiple 96-well plates to give a final cell number of 10^5 per well. Test compounds, dissolved in dimethyl sulfoxide (DMSO) at 1 mg/ml, were first diluted in culture medium to an intermediate concentration of 20 μg/ml and then were added (50 μwell) to a specific well of the plate for each compound. Stimulation medium (50 μl/well) containing 10% serum, IL-2 and IL-12 was added to final concentrations of 25 U/ml and 0.5 ng/ml, respectively. Control wells receive no IL-2 or IL-12 (negative control) or received both interleukins but no test compound (positive control). The plates were incubated for 48 hr at 37° C. in a CO2 incubator at which time aliquots (20 μl) were removed for analysis of IFN-γ concentration by ELISA. A quantitative ELISA was developed by coating 96-well plates with an mouse monoclonal antibody against human IFN-γ, 1 μg/ml in phosphate buffered saline (PBS) (Pestka Biological Laboratories), overnight at 4° C. Unbound antibody was washed off by washing three times with PBS. Non-specific antibody binding was blocked with a solution of 1% bovine serum albumin (BSA) and 1% goat serum in PBS (150 μl/well) which was incubated for 2 hr at 37° C. After washing the blocked plates four times with PBS, test samples and dilutions of the IFN-γ standard are added in a final volume of 100 μl/well. Following an overnight incubation at 4° C., the plates are washed four times with PBS, and a polyclonal rabbit antiserum against human IFN-γ (1/10000 dilution--Petska Biological Laboratories) is added. After an additional incubation for 1 hr at 37° C. and four washes with PBS, a polyclonal donkey anti-rabbit detecting antibody, conjugated to horseradish peroxidase (1/700 dilution--Petska Biological Laboratories) is added for 1 hr at 37° C. The plates are then washed four times with PBS and 100 μl of K-blue substrate E(ILISA Technologies, Neogen Corp.) is added until the color in the wells containing the standard curve is sufficiently developed, at which time 100 μl of "Red-stop" solution (ELISA Technologies) is added. The absorbance of the solution within each well of the plate is then read at 650 nm using an ELISA plate reader (Dynatech MR7000). The amount of IFN-γ is calculated by comparing the optical density of the test sample with a standard curve derived from the dilutions of the control IFN-y. […] MTS is a chemical chromophore that is metabolized in the mitochondria of viable cells to produce a color which increases in intensity in proportion to the numbers of viable cells. The absorbance of the cell culture can be compared to control cultures in order to determine the percent viability.

Row | SMILES | inhibition of IFN-γ secretion versus cell proliferation (in words) [1] | inhibition at 5 µg/mL [2] | Results (Dead/Alive) ([3]; 80 mg/kg IV, 20% DMSO) | LD50 ([4]; IV, 20% DMSO) | viability [5] | Results (Dead/Alive) ([3]; 100 mg/kg IV, 20% DMSO) | Results (Dead/Alive) ([3]; 150 mg/kg IV, 20% DMSO) | LD50 ([4]; iv, 20% DMSO) | Results (Dead/Alive) ([3]; 100 mg/kg IV, 20% EGME) | Results (Dead/Alive) ([3]; 150 mg/kg IV, 20% EGME) | LD50 ([4]; IV, 20% EGME) | LD50 ([4]; iv, 20% EGME)
1 | Nc1nc2nn[nH]c2c(=O)[nH]1 [Compound 8-azaguanine, 8-azaguanine, reference compound] | general immunosuppressant |  |  |  |  |  |  |  |  |  |  | 
2 | CCCCC(C)(c1cc(C)c(O)c(C)c1)c1cc(C)c(O)c(C)c1 [Compound 52782] |  | 102% | Dead | < 80 mg/kg | 116% |  |  |  |  |  |  | 
3 | CCC(C)(c1ccc(O)c(C)c1)c1ccc(O)c(C)c1 [Compound 54003] |  | 101% |  |  | 85% | Alive | Dead | 100 to 150 mg/kg |  |  |  | 
4 | CCCCCCC(c1cc(C)cc(C)c1O)c1cc(C)cc(C)c1O [Compound 54015] |  | 96% | Alive |  | 34% |  |  | > 80 mg/kg |  |  |  | 
5 | Cc1cc(C(CCc2ccccc2)c2cc(C)cc(C(C)(C)C)c2O)c(O)c(C(C)(C)C)c1 [Compound 54016] |  | 26% |  |  | 98% | Alive | Alive | > 150 mg/kg |  |  |  | 
6 | CCCCCC(c1cc(C)cc(C(C)(C)C)c1O)c1cc(C)cc(C(C)(C)C)c1O [Compound 54018] |  | 55% |  |  | 92% |  |  |  | Dead | Dead | < 100 mg/kg | 
7 | CCCCCC(c1cc(C)cc(C)c1O)c1cc(C)cc(C)c1O [Compound 54019] |  | 77% |  |  | 101% | Alive | Dead | 100 to 150 mg/kg |  |  |  | 
8 | CCCCC(c1cc(C)cc(C(C)(C)C)c1O)c1cc(C)cc(C(C)(C)C)c1O [Compound 54020] |  | 69% |  |  | 95% |  |  |  | Alive | Dead |  | 100 to 150 mg/kg
9 | CCCC(c1cc(C)c(O)c(C)c1)c1cc(C)c(O)c(C)c1 [Compound 54044] |  | 98% |  |  | 92% | Alive | Alive | > 150 mg/kg |  |  |  | 
10 | CCCC(C)(c1cc(C)c(O)c(C)c1)c1cc(C)c(O)c(C)c1 [Compound 54064] |  | 79% |  |  | 112% | Alive | Dead | 100 to 150 mg/kg |  |  |  | 
